Tested on: HMC1 cells
Assay: In vitro testing of mast cell line HMC-1: histamine release after IgE/anti-IgE, ELISA of supernatant
Assay type: cell-based
Settings: calcium ionophore 100 μg/ml, 30 min; for histamine production / release: no IgE/anti-IgE
Experimental: Mast cell lines, i.e. HMC1 cells (provided by Dr Joseph H. Butterfield; Mayo Clinic, Rochester, Minn., USA), were cultured in Isocove's Modified Dulbecco's Medium (IMDM) containing 10% Fetal Bovine Serum (FBS), 2 mM L-glutamine, 50 μM 2-mercaptoethanol, 100 U/mL penicillin and 100 μg/mL streptomycin. Cells were maintained at 37° C. in 5% CO2 in a humidified atmosphere.
Percentage of living cells was determined by trypan blue staining. A 1:10 dilution with 50 μl cell suspension and 450 μl trypan blue was prepared and the number of living and dead cells was counted in a hemocytometer. 10^6 living cells were transferred into safe-lock Eppendorf tubes. Cell suspensions were centrifuged (200 g, 5 min) and supernatant was discarded.
The effect of perilla oil, sesame oil and a combination of perilla oil and sesame oil (in a combination ratio of 1:1) in the vehicle Kolliphor ELP (polyoxyl-35 hydrogenated castor oil) was determined. The positive control Cromolyn in phosphate buffer saline (PBS), the vehicles PBS and ELP, and calcium ionophore A23187 were also tested as controls.
After adding 100 μl IgE (100 ng/ml in PBS/ELP) to the cell pellets, cells were incubated for 12 hours over night, at 37° C. Cells were than incubated for 2 hours, at 37° C. with different concentrations of compounds. After centrifugation (200 g, 5 min), supernatant was discarded and cell pellet was again incubated for 1 hour, at 37° C. with 100 μl anti-IgE (1 μg/ml in PBS/ELP). For the final incubation time of 6 hours, at 37° C., 300 μl HMC1 media was added. Cells were again centrifuged (200 g, 5 min) and supernatant was collected and stored as 300 μl aliquots at −20° C. for ELISA measurements. Cell pellets were resuspended in 100 μl HMC1 media for determining cell viability.
The procedure was slightly different when the compound testing was calcium ionophore A23187. […]
The concentration of histamine in the collected supernatant was determined by ELISA, using a kit obtained from IBL International according to the manufacturer's guidelines. Each sample was measured twice. […]

## CNc1ccc2oc(C[C@H]3O[C@@]4(CC[C@H]3C)O[C@H]([C@H](C)C(=O)c3ccc[nH]3)[C@H](C)C[C@H]4C)nc2c1C(=O)O [calcium ionophore, calcium ionophore A23187]
  effect on the cells (cell viability): cells were completely destroyed
  histamine production / release: highest values of histamine production
Listed as Calcium ionophore
  histamine production / release: released all histamine

Source: patent publication US11123391B2, “Nasal composition” (INQPHARM GROUP SDN BHD, priority 2015, dated 2021)
